Columns and labels:
[1] = biological target: T1, 5-hydroxytryptamine receptor 2C (Rattus norvegicus, UniProt P08909); assay: Displacement of [3H]mesulergine from 5HT2C receptor in rat brain cortex; format: tissue-based
T1 sequence (P08909 whole entry): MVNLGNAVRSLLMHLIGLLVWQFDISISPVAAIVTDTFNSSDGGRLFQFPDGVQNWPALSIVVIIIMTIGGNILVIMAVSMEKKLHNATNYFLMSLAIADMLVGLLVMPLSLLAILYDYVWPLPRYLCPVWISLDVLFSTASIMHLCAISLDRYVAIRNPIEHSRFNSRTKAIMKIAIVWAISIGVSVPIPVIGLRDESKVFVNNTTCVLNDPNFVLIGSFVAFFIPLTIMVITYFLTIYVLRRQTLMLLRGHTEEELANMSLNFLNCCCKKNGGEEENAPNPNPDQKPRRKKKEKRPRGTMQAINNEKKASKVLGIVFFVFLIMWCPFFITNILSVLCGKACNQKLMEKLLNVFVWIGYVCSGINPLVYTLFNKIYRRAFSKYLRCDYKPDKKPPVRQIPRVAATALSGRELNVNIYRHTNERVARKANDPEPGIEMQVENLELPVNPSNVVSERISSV

[2] = biological target: T2, 5-hydroxytryptamine receptor 1A (Rattus norvegicus, UniProt P19327); assay: Displacement of [3H]8-OH-DPAT from 5HT1A receptor in rat brain cortex; format: tissue-based
T2 sequence (P19327 whole entry): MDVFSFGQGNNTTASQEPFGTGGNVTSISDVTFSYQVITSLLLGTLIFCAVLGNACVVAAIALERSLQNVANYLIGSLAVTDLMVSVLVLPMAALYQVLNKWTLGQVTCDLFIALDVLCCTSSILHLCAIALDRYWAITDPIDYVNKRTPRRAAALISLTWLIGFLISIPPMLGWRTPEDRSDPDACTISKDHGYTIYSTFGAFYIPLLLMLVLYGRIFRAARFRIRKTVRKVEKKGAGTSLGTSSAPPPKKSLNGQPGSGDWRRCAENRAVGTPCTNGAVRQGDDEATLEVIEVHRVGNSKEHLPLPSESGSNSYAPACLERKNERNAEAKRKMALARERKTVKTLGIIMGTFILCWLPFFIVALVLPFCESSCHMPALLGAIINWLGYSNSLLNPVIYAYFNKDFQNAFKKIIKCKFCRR

[3] = biological target: D(3) dopamine receptor (Rattus norvegicus, UniProt P19020); assay: Displacement of [3H]7-OH-DPAT from dopamine D3 receptor in rat olfactory tubercle; format: tissue-based
[4] = biological target: Voltage-gated inwardly rectifying potassium channel KCNH2 (Homo sapiens, UniProt Q12809); assay: Inhibition of human ERG
[5] = test system: Mus musculus; assay: Selectivity ratio of ED50 for po dosed mouse assessed as catalepsy to ED50 for po dosed mouse assessed as reversal of apomorphine-induced climbing activity
[6] = biological target: 5-hydroxytryptamine receptor 2A (Homo sapiens) (UniProt P28223); assay: Antagonist activity at […] receptor (unknown origin) at 10 uM
[7] = biological target: D(3) dopamine receptor (Homo sapiens) (UniProt P35462); assay: Agonist activity at dopamine D3 receptor (unknown origin) at 10 uM relative to dopamine
[8] = biological target: 5-hydroxytryptamine receptor 2A (Homo sapiens) (UniProt P28223); assay: Agonist activity at […] receptor (unknown origin) at 10 uM relative to 5-HT
[9] = biological target: D(2) dopamine receptor (Homo sapiens) (UniProt P14416); assay: Agonist activity at dopamine D2 receptor (unknown origin) at 10 uM relative to dopamine
[10] = test system: Mus musculus; assay: Selectivity ratio of ED50 for po dosed mouse assessed as catalepsy to ED50 for po dosed mouse assessed as reversal of MK-801-induced hyperactivity
[11] = test system: Mus musculus; assay: Antipsychotic activity in po dosed mouse assessed as reversal of MK-801-induced hyperactivity; format: functional
[12] = biological target: T3, 5-hydroxytryptamine receptor 1A (Homo sapiens) (UniProt P08908); assay: Agonist activity at […] receptor (unknown origin) at 10 uM relative to 5-HT
T3 sequence (whole entry): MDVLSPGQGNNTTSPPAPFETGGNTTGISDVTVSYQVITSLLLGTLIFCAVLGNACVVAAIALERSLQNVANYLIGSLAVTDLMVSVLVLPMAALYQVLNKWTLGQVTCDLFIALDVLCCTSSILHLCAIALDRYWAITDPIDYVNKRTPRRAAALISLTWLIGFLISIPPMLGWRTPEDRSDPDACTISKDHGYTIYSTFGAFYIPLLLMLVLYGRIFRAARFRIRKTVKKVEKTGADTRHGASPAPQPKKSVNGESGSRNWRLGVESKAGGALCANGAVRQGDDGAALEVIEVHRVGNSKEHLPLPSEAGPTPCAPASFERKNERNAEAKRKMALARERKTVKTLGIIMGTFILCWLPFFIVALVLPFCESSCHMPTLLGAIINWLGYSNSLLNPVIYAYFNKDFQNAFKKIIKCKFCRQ

[13] = test system: Mus musculus; assay: Toxicity in po dosed mouse assessed as catalepsy; format: organism-based; conditions: in vivo
[14] = test system: Mus musculus; assay: Antipsychotic activity in po dosed mouse assessed as reversal of apomorphine-induced climbing activity; format: functional
[15] = biological target: D(2) dopamine receptor (Homo sapiens) (UniProt P14416); assay: Antagonist activity at dopamine D2 receptor (unknown origin) at 10 uM
[16] = test system: Mus musculus; assay: Antipsychotic activity in po dosed mouse assessed as reversal of DOI-induced head twitch activity; format: functional

Chain of D(2) dopamine receptor (Homo sapiens) (P14416 whole entry): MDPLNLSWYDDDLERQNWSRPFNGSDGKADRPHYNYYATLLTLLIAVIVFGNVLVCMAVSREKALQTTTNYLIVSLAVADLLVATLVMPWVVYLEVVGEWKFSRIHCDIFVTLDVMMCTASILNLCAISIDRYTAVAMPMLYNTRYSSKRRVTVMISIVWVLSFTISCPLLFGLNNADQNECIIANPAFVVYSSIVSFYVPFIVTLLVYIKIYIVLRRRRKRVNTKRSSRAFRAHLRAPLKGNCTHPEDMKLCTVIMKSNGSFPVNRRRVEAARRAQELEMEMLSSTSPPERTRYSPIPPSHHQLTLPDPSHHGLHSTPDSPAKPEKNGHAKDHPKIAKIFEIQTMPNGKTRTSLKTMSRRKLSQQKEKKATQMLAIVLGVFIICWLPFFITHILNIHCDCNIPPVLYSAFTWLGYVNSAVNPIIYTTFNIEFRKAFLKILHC
Chain of Voltage-gated inwardly rectifying potassium channel KCNH2 (Q12809 whole entry): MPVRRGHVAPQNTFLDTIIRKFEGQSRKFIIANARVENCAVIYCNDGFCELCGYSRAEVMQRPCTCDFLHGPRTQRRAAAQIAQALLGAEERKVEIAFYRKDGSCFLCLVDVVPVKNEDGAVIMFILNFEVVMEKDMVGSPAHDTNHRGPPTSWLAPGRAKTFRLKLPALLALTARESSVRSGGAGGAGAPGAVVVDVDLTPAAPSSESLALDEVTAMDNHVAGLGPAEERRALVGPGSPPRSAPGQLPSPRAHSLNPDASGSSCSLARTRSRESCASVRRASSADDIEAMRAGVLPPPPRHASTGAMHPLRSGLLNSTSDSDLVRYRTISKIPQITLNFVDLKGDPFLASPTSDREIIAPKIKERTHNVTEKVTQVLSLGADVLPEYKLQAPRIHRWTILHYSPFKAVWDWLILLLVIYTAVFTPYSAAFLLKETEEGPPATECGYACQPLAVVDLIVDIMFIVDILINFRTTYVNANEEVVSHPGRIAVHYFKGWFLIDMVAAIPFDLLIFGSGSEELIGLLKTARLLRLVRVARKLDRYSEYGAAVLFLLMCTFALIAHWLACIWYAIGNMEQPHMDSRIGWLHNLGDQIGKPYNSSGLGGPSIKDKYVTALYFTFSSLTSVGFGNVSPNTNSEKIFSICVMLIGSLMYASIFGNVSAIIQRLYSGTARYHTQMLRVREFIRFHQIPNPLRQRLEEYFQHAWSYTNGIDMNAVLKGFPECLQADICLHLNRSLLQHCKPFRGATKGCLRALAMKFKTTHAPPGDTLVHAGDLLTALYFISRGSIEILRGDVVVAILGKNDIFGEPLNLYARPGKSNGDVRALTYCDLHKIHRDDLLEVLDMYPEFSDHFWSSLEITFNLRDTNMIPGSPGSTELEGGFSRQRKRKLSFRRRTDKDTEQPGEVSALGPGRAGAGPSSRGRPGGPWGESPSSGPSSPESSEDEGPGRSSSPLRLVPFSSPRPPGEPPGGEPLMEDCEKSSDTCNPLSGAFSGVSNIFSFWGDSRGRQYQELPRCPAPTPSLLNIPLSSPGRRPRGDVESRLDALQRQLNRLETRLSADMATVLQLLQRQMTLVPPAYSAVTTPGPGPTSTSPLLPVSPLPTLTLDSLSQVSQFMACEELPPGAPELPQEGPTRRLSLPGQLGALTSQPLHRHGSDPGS
Chain of D(3) dopamine receptor (P19020 whole entry): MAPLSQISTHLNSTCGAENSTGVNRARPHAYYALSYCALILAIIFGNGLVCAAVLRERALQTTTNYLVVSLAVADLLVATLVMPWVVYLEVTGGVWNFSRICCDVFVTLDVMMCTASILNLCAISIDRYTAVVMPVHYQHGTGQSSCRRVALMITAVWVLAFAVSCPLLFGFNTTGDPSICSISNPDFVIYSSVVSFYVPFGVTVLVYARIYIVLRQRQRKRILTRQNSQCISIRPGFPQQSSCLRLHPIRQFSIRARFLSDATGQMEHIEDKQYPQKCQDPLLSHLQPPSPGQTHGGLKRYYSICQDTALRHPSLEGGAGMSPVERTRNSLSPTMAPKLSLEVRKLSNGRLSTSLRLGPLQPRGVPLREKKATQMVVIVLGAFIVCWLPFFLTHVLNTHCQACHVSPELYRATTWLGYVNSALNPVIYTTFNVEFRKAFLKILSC
Chain of 5-hydroxytryptamine receptor 2A (Homo sapiens) (P28223 whole entry): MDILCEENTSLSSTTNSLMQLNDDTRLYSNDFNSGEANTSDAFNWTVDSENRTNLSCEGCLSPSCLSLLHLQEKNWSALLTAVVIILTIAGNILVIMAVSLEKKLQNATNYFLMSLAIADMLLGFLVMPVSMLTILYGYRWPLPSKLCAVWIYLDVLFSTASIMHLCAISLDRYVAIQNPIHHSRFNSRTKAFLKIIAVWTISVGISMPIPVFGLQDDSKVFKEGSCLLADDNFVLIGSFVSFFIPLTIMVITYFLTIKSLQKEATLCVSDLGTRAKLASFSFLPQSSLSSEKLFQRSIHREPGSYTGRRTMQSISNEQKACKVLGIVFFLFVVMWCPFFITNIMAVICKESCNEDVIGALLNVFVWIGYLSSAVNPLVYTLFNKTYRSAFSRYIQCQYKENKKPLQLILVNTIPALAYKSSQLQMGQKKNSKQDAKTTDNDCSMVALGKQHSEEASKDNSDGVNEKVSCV
Chain of D(3) dopamine receptor (Homo sapiens) (P35462 whole entry): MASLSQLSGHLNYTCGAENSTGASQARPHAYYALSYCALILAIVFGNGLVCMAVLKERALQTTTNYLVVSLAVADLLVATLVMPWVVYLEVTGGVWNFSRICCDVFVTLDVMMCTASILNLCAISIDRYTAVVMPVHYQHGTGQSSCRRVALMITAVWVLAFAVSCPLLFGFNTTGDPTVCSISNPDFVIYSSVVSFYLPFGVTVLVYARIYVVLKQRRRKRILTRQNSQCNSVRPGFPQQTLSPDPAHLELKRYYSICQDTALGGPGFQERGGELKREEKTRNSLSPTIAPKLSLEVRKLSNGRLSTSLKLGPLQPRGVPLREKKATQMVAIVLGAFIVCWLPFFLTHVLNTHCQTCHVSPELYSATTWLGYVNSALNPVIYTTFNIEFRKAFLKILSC

Ki [1] | Ki [2] | Ki [3] | inhibition [6] | Activity [7] | Activity [8] | Activity [9] | Activity [12] | inhibition [15] | SMILES | IC50 [4] | Ratio ED50 [5] | Ratio ED50 [10] | ED50 [11] | ED50 [13] | ED50 [14] | ED50 [16]
137 nM | 21.9 nM | 237 nM | – | – | – | – | – | – | O=S(=O)(c1ccc(C(F)(F)F)cc1)N1CCC(CN2CCC(c3noc4cc(F)ccc34)CC2)CC1 | 1390 nM | – | – | – | – | – | –
998 nM | 16.9 nM | 16.6 nM | 100% | 3.7% | 6.8% | 5.9% | 8.2% | 100% | O=[N+]([O-])c1ccc(S(=O)(=O)N2CCC(CN3CCC(c4noc5cc(F)ccc45)CC3)CC2)cc1 | 3810 nM | 108.8 | 61.3 | 0.71 mg/kg | 43.53 mg/kg | 0.4 mg/kg | 0.57 mg/kg

Source: ChEMBL document CHEMBL3739370, “Synthesis and evaluation of amide, sulfonamide and urea benzisoxazole derivatives as potential atypical antipsychotics” (Medchemcomm, 2015)
